Measurements: paper PMC3600326, “Design, Synthesis, and Evaluation of New Tripeptides as COX-2 Inhibitors” (Journal of Amino Acids, 2013)
Residues, ends and D or L forms follow the SMILES beside them.

Assays:
hCOX-1 = biological target: T1, hCOX-1 (Homo sapiens, UniProt P23219); assay: hCOX activity, TMPD oxidation with AA as substrate, COX-1 from human platelet microsomes; type: biochemical; details: means ± SEM from five experiments; *** = no active at 500 μM
T1 construct: COX-1 from human platelet microsomes; from tissue; host or cells: human platelets (microsomes) from donor buffy coat
T1 sequence (P23219 24-599): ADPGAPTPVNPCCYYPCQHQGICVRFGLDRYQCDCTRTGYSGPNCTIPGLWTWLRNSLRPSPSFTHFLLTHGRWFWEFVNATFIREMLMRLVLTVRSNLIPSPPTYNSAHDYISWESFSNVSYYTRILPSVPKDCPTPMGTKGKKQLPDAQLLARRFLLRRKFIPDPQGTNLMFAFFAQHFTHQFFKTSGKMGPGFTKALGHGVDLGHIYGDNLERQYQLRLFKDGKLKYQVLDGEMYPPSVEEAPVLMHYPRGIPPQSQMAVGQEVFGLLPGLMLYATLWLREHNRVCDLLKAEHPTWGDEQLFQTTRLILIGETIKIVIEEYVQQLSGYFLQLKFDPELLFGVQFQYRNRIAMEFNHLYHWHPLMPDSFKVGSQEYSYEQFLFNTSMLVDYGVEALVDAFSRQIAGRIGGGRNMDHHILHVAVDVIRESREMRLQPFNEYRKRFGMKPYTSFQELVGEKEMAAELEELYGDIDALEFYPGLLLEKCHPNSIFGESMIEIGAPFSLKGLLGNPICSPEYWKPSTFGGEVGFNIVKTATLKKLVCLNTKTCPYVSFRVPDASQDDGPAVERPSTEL
Method: Washed human platelets were prepared from blood anticoagulated with citrate-phosphate-dextrose, which was obtained from Centro de Transfusion de Galicia (Santiago de Compostela, Spain).
The upper layer containing platelets (platelet-rich plasma) was removed and centrifuged at 1000 g for 18 min. The resulting platelet pellet was recovered, resuspended with washing buffer, and centrifuged again at 1000 g for 15 min. Finally, the platelet pellet from this step was resuspended in a modified Tyrode-HEPES buffer (HEPES 10 mM; NaCl 140 mM; KCl 3 mM; MgCl2 0.5 mM; NaHCO3 5 mM; glucose 10 mM; pH 7.4) to afford a cell density of 3–3.5·10^8 platelet/mL. The calcium concentration in the extracellular medium was 2 mM [13].
(§1) The potential effects of the test drugs on total hCOX activity (bis-dioxygenase and peroxidase reactions) were investigated by measuring their effects on the oxidation of N,N,N′,N′-tetramethyl-p-phenylenediamine (TMPD) to […], using AA as common substrate for both hCOX-1 and hCOX-2, microsomal COX-2 prepared from insect cells (Sf21 cells) infected with recombinant baculovirus containing cDNA inserts for hCOX-2 (Sigma Aldrich Química S.A., Alcobendas, Spain), and COX-1 from human platelet microsomes (obtained as described in the above paragraph since, unlike hCOX-2, hCOX-1 is not available commercially).
(§2) Results shown in Table 3 are expressed as means ± SEM from five experiments. Means were compared by one-way analysis of variance (ANOVA) followed by Dunnett's post-hoc test.
(§3) This regression was performed using the data obtained with 4–6 different concentrations of each compound assayed, which inhibited the enzymatic activity of COX control isoform between 20 and 80%.

hCOX-2 = biological target: T2, hCOX-2 (Homo sapiens, UniProt P35354); assay: hCOX activity, TMPD oxidation with AA as substrate, microsomal recombinant hCOX-2 from Sf21 insect cells; type: biochemical; details: for IC50: means ± SEM from five experiments, *** = no active at 500 μM, read-out: COX-2 (IC50); for Ratio, index of selectivity SI = [IC50(COX-2)]/[IC50(COX-1)]: COX-2 over COX-1, bounds use the highest concentration tested
T2 construct: purchased Sigma Aldrich Química S.A., Alcobendas, Spain; host or cells: Sf21 insect cells infected with recombinant baculovirus
T2 sequence (P35354 18-604): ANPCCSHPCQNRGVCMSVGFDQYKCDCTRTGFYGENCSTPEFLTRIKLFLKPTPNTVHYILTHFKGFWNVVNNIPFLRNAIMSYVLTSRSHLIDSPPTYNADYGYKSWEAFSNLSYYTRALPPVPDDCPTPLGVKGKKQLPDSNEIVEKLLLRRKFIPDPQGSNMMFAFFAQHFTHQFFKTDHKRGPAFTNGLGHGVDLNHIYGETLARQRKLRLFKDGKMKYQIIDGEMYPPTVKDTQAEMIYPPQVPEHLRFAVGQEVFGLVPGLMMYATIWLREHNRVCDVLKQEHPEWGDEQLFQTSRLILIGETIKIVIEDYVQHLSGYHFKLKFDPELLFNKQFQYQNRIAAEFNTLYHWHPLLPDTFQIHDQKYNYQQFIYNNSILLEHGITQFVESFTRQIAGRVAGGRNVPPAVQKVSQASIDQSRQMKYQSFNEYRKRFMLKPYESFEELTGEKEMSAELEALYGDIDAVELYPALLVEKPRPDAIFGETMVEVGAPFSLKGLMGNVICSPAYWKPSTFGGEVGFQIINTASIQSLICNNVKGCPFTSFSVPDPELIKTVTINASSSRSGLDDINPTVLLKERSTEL
From the text: as §1, §2, §3

COX-2 = tested on: COX-2; design: method as in PMID 17640617; details: ELISA test; cited from earlier work

Compound | IC50 (hCOX-1) [µM] | IC50 (hCOX-2) [µM] | Ratio, index of selectivity SI = [IC50(COX-2)]/[IC50(COX-1)] (hCOX-2) | inhibition of COX-2 activity (COX-2)
COc1ccc(-c2nc(C(=O)N3CCN(C)CC3)sc2-c2ccc(OC)cc2)cc1 [FR122047, reference compound] | 93.8 ± 6.55 | > 500 |  | 
CSCC[C@H](NC(=O)CN)C(=O)N[C@@H](CC(=O)O)C(=O)O [Peptide S1, Gly-Met-Asp] (H-Gly-Met-Asp-OH) | 150 ± 2.34 | 94 ± 2.59 | 0.6255 | 
C[C@H](NC(=O)[C@H](CCCNC(=N)N)NC(=O)[C@@H](N)CCC(=O)O)C(=O)O [Peptide S2, ERA] (H-Glu-Arg-Ala-OH) | 143 ± 2.57 | 121 ± 2.33 | 0.8443 | 
NCC(=O)N[C@@H](Cc1c[nH]cn1)C(=O)N[C@@H](CCC(=O)O)C(=O)O [Peptide S3, Gly-His-Glu] (H-Gly-His-Glu-OH) | 152 ± 5.18 | 94.9 ± 2.12 | 0.6225 | 
N=C(N)NCCC[C@H](NC(=O)[C@H](CCC(=O)O)NC(=O)CN)C(=O)O [Peptide S4, GER] (H-Gly-Glu-Arg-OH) | 99.3 ± 1.14 | 80.6 ± 2.14 | 0.8111 | 
N=C(N)NCCC[C@H](NC(=O)[C@@H](N)CC(=O)O)C(=O)N[C@@H](CS)C(=O)O [Peptide S5, DRC] (H-Asp-Arg-Cys-OH) | 161 ± 2.57 | 100 ± 2.33 | 0.6195 | 
C[C@H](N)C(=O)N[C@@H](CCCNC(=N)N)C(=O)N[C@@H](C)C(=O)O [Peptide S6, ARA] (H-Ala-Arg-Ala-OH) | 102 ± 1.14 | 91.2 ± 2.41 | 0.8914 | 
N=C(N)NCCC[C@H](NC(=O)[C@H](CCC(=O)O)NC(=O)[C@@H]1CCCN1)C(=O)O [Peptide S7, PER] (H-Pro-Glu-Arg-OH) | 100 ± 2.19 | 88.2 ± 3.01 | 0.8792 | 
CC[C@H](C)[C@H](NC(=O)[C@H](Cc1c[nH]cn1)NC(=O)[C@@H](N)CCCCN)C(=O)O [Peptide S8, KHI] (H-Lys-His-Ile-OH) | 122 ± 3.78 | 91.7 ± 2.98 | 0.7484 | 
C[C@H](N)C(=O)N[C@@H](CCC(=O)O)C(=O)N[C@@H](CCCNC(=N)N)C(=O)O [Peptide S9, AER] (H-Ala-Glu-Arg-OH) | 221.6 ± 1.04 | 68.3 ± 5.43 |  | 
C[C@H](N)C(=O)NCC(=O)N[C@@H](CCCNC(=N)N)C(=O)O [Peptide S10, AGR] (H-Ala-Gly-Arg-OH) | 99.1 ± 1.55 | 79.2 ± 2.15 | 0.7991 | 
WCS |  |  |  | more than 85%
